Results filed as inconclusive are left out.
Molecular target: Sodium- and chloride-dependent glycine transporter 1 (Homo sapiens) (UniProt P48067)
Assay: PubChem AID 1794809
Conditions: HEK-293 SLC6A9 OE, FLIPR membrane potential dye

Sodium- and chloride-dependent glycine transporter 1 (Homo sapiens), sequence (P48067 whole entry, looked up): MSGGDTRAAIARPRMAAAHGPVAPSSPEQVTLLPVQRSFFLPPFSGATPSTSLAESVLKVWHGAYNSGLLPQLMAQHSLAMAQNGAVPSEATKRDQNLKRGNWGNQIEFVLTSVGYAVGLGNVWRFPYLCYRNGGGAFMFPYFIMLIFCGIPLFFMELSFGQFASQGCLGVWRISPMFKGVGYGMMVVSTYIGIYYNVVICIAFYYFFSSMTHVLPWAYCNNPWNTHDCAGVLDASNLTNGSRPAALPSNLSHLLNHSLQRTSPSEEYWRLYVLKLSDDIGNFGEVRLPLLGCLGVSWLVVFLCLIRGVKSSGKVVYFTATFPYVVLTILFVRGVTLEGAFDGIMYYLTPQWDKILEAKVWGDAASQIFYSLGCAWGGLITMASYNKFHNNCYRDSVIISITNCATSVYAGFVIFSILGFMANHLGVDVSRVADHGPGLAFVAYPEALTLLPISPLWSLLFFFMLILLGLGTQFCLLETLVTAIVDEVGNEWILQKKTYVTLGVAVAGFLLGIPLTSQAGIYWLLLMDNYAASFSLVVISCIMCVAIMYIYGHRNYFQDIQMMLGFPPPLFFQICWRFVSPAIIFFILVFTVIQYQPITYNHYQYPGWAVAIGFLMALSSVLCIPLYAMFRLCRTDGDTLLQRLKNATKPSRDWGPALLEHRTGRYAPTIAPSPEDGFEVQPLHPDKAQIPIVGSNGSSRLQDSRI

NCC(=O)O gave an EC50 of 106 µM.
